Patent US8153808B2, “Dihydropyridone amides as P2X7 modulators” (Roche Palo Alto LLC, priority 2008, dated 2012)

Target: T1, P2X7 (UniProt Q99572)
T1 sequence (Q99572 1-595): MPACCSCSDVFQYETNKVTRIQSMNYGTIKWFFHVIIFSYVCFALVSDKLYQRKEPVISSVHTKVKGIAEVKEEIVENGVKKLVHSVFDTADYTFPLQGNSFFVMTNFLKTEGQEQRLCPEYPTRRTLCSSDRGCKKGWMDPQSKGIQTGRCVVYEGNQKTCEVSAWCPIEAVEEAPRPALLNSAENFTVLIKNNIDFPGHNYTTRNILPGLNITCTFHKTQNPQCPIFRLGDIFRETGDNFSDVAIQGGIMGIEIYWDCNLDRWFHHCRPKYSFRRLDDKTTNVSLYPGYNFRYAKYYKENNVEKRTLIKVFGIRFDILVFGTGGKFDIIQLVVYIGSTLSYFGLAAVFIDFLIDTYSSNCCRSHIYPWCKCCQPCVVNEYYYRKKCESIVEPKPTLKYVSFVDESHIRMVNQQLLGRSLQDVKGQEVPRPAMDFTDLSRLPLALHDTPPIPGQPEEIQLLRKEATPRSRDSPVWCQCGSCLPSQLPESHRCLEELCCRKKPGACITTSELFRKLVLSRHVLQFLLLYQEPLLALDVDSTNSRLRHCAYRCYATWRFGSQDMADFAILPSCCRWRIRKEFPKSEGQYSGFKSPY
Experiment: pIC50 values for P2X7 (Table 1)
Format: cell-based
Experimental: Intracellular Calcium Flux (FLIPR) Assay
Stock solutions of compounds were prepared from powders as a 10 mM DMSO stock solution. These solutions were stored at RT during the two week period of these experiments to prevent freeze-thaw of the DMSO stocks. The DMSO stocks were added to the appropriate assay buffer at a concentration of 10 μM, and then diluted serially to the final concentrations that were tested. […] The aqueous solutions of compounds as well as ATP (Sigma A7699) and BzATP (Sigma B6396) were prepared fresh for each day of experiment.
1321N1 cells stably expressing the full length human P2X7 gene (1321N1-hP2X7) and HEK293 cells stably expressing the full length rat P2X7 gene (HEK293-rP2X7) were obtained from the Roche Cell Culture Facility. 1321N1-hP2X7 cells were grown in Dulbecco's Modified Eagle's Medium (DMEM) high glucose supplemented with 10% FBS and 250 μg/mL G418. HEK293-rP2X7 cells were grown in DMEM/F-12 supplemented with 10% FBS, 1 mM CaCl2, 2 mM MgCl2, 2 mM L-Glutamine and 500 μg/ml G418. Cells were split such that they never became >70% confluent.
On the day prior to the experiment, 1321N1-hP2X7 or HEK293-rP2X7 cells were released into suspension with calcium-free PBS+Versene and washed by centrifugation with calcium-free PBS to remove the Versene. Cells were resuspended in growth medium at a density of 2.5×10^5 cells/mL and seeded into black walled, clear bottom 96 well plates (50,000 cells/well) approximately 18 hr prior to intracellular calcium flux experiments.
On the day of the experiment, plates were washed with FLIPR buffer (calcium- and magnesium-free Hank's Balanced Salt Solution (HBSS) supplemented with 10 mM Hepes, 2.5 mM probenecid and 2 mM calcium chloride) using a BIO-TEK 96 channel plate washer and incubated with […] fluo-3 dye at 37° C. for one hr. The dye was then removed by plate washing and the cells were allowed to equilibrate for 20 min at room temperature with antagonist or vehicle (FLIPR buffer). Agonist (100 μM BzATP final concentration for hP2X7; 5 μM BzATP final concentration or rP2X7) was added online with the FLIPR and fluorescence measurements made at 1 sec intervals for 60 sec followed by 3 sec intervals for a further 4 min (5 min total). A final addition of 5 μM ionomycin was made and the maximal BzATP-evoked fluorescence normalized to the maximal ionomycin-evoked fluorescence.

In the case of `Cc1cc(Br)c(CC(=O)N2C=CC(=O)CC2c2ccc(F)cc2)cc1O` (stereo not shown) [Compound 33, 1-[2-(2-Bromo-5-hydroxy-4-methyl-phenyl)-acetyl]-2-(4-fluoro-phenyl)-2,3-dihydro-1H-pyridin-4-one], the “pIC50 P2X7” value is reported as 6.18.

With `COc1cc(Br)c(CC(=O)N2C=CC(=O)CC2CC2CCCCC2)cc1OC` (stereo not shown) [Compound 34, 1-[2-(2-Bromo-4,5-dimethoxy-phenyl)-acetyl]-2-cyclohexylmethyl-2,3-dihydro-1H-pyridin-4-one] the “pIC50 P2X7” value was 5.94.

`COc1cc(Br)c(CC(=O)N2C=CC(=O)CC2c2cccc(F)c2)cc1OC` (stereo not shown) [Compound 35, 1-[2-(2-Bromo-4,5-dimethoxy-phenyl)-acetyl]-2-(3-fluoro-phenyl)-2,3-dihydro-1H-pyridin-4-one] was tested, and the “pIC50 P2X7” value was 6.815.

In the case of `COc1cc(CC(=O)N2C=CC(=O)C[C@H]2c2ccc(F)cc2)c(Br)cc1F` [Compound 36, (S)-1-[2-(2-Bromo-4-fluoro-5-methoxy-phenyl)-acetyl]-2-(4-fluoro-phenyl)-2,3-dihydro-1H-pyridin-4-one], the “pIC50 P2X7” value is reported as 7.55.

In the case of `COc1cc(Br)c(CC(=O)N2C=CC(=O)CC2c2cccc(C)c2)cc1OC` (stereo not shown) [Compound 37, 1-[2-(2-Bromo-4,5-dimethoxy-phenyl)-acetyl]-2-m-tolyl-2,3-dihydro-1H-pyridin-4-one], the “pIC50 P2X7” value is reported as 6.425.

In the case of `COc1cc(Br)c(CC(=O)N2C=CC(=O)CC2c2ccc(C)cc2)cc1OC` (stereo not shown) [Compound 38, 1-[2-(2-Bromo-4,5-dimethoxy-phenyl)-acetyl]-2-p-tolyl-2,3-dihydro-1H-pyridin-4-one], the “pIC50 P2X7” value is reported as 5.325.

For `COc1cc(Br)c(CC(=O)N2C=CC(=O)CC2c2cccc(C#N)c2)cc1OC` (stereo not shown) [Compound 39, 3-{1-[2-(2-Bromo-4,5-dimethoxy-phenyl)-acetyl]-4-oxo-1,2,3,4-tetrahydro-pyridin-2-yl}-benzonitrile], the “pIC50 P2X7” value was 5.45.

In the case of `COc1ccc(CC(=O)N2C=CC(=O)CC2c2ccc(F)cc2)c(OC)c1` (stereo not shown) [Compound 40, 1-[2-(2,4-Dimethoxy-phenyl)-acetyl]-2-(4-fluoro-phenyl)-2,3-dihydro-1H-pyridin-4-one], the “pIC50 P2X7” value is reported as 5.843.

With `COc1cc(Br)c(CC(=O)N2C=CC(=O)C[C@H]2c2cccc(F)c2)cc1OC` [Compound 41, (S)-1-[2-(2-Bromo-4,5-dimethoxy-phenyl)-acetyl]-2-(3-fluoro-phenyl)-2,3-dihydro-1H-pyridin-4-one] the “pIC50 P2X7” value was 7.94.

With `COc1ccc(OC)c(CC(=O)N2C=CC(=O)CC2c2ccc(F)cc2)c1` (stereo not shown) [Compound 42, 1-[2-(2,5-Dimethoxy-phenyl)-acetyl]-2-(4-fluoro-phenyl)-2,3-dihydro-1H-pyridin-4-one] the “pIC50 P2X7” value was 5.995.

With `COCCOc1cc(CC(=O)N2C=CC(=O)C[C@H]2c2ccc(F)cc2)c(Br)cc1F` [Compound 43, (S)-1-{2-[2-Bromo-4-fluoro-5-(2-methoxy-ethoxy)-phenyl]-acetyl}-2-(4-fluoro-phenyl)-2,3-dihydro-1H-pyridin-4-one] the “pIC50 P2X7” value was 7.89.

In the case of `COc1ccc(CC(=O)N2C=CC(=O)C[C@H]2c2ccc(F)cc2)cc1OC` [Compound 44, (S)-1-[2-(3,4-Dimethoxy-phenyl)-acetyl]-2-(4-fluoro-phenyl)-2,3-dihydro-1H-pyridin-4-one], the “pIC50 P2X7” value is reported as 6.003.

In the case of `COc1ccc(CC(=O)N2C=CC(=O)C[C@H]2c2cccc(F)c2)cc1OC` [Compound 45, (S)-1-[2-(3,4-Dimethoxy-phenyl)-acetyl]-2-(3-fluoro-phenyl)-2,3-dihydro-1H-pyridin-4-one], the “pIC50 P2X7” value is reported as 6.006.

In the case of `O=C1C=CN(C(=O)Cc2cc(OCCO)c(F)cc2Br)[C@H](c2ccc(F)cc2)C1` [Compound 46, (S)-1-{2-[2-Bromo-4-fluoro-5-(2-hydroxy-ethoxy)-phenyl]-acetyl}-2-(4-fluoro-phenyl)-2,3-dihydro-1H-pyridin-4-one], the “pIC50 P2X7” value is reported as 7.31.

With `COc1cc(F)c(CC(=O)N2C=CC(=O)C[C@H]2c2ccc(F)cc2)cc1OC` [Compound 47, (S)-1-[2-(2-Fluoro-4,5-dimethoxy-phenyl)-acetyl]-2-(4-fluoro-phenyl)-2,3-dihydro-1H-pyridin-4-one] the “pIC50 P2X7” value was 6.4.

`COc1cc(F)c(CC(=O)N2C=CC(=O)C[C@H]2c2cccc(F)c2)cc1OC` [Compound 48, (S)-1-[2-(2-Fluoro-4,5-dimethoxy-phenyl)-acetyl]-2-(3-fluoro-phenyl)-2,3-dihydro-1H-pyridin-4-one] was tested, and the “pIC50 P2X7” value was 6.55.

In the case of `Cc1cc(F)c(OCCO)cc1CC(=O)N1C=CC(=O)C[C@H]1c1ccc(F)cc1` [Compound 49, (S)-1-{2-[4-Fluoro-5-(2-hydroxy-ethoxy)-2-methyl-phenyl]-acetyl}-2-(4-fluoro-phenyl)-2,3-dihydro-1H-pyridin-4-one], the “pIC50 P2X7” value is reported as 7.12.

For `O=C1C=CN(C(=O)Cc2cc(OCCO)c(F)cc2Br)[C@H](c2cccc(F)c2)C1` [Compound 50, (S)-1-{2-[2-Bromo-4-fluoro-5-(2-hydroxy-ethoxy)-phenyl]-acetyl}-2-(3-fluoro-phenyl)-2,3-dihydro-1H-pyridin-4-one], the “pIC50 P2X7” value was 7.65.

With `COc1cc(Cl)c(CC(=O)N2C=CC(=O)C[C@H]2c2ccc(F)cc2)cc1OC` [Compound 51, (S)-1-[2-(2-Chloro-4,5-dimethoxy-phenyl)-acetyl]-2-(4-fluoro-phenyl)-2,3-dihydro-1H-pyridin-4-one] the “pIC50 P2X7” value was 7.77.
